From ChEMBL document CHEMBL3400127, “Synthesis of 6-[(11)C]methyl-m-tyrosine ([(11)C]6MemTyr) for dopamine synthesis imaging in living brain using PET” (Bioorg Med Chem, 2015)

Tests used:
Details in all cases: in vivo; call rule not given here
[1] = Drug uptake in cynomolgus monkey cerebellum after 60 to 90 mins by PET imaging analysis; type: ADME, tissue-based, Macaca fascicularis
[2] = Drug uptake in cynomolgus monkey striatum after 40 to 60 mins by PET imaging analysis; type: ADME, tissue-based, Macaca fascicularis
[3] = Half life in cynomolgus monkey cerebellum by PET imaging analysis; type: ADME, tissue-based, Macaca fascicularis
[4] = Drug uptake in cynomolgus monkey cerebellum after 5 mins by PET imaging analysis; type: ADME, Macaca fascicularis
[5] = Drug uptake in cynomolgus monkey striatum after 10 mins by PET imaging analysis; type: ADME, tissue-based, Macaca fascicularis
[6] = Drug uptake in cynomolgus monkey cortex after 60 to 90 mins by PET imaging analysis; type: ADME, tissue-based, Macaca fascicularis
[7] = Drug uptake in cynomolgus monkey striatum after 60 to 90 mins by PET imaging analysis; type: ADME, tissue-based, Macaca fascicularis
[8] = Drug uptake in cynomolgus monkey cerebellum after 40 to 60 mins by PET imaging analysis; type: ADME, tissue-based, Macaca fascicularis
Brain = test: Drug uptake in cynomolgus monkey brain assessed as dopamine synthesis after 60 to 90 mins by PET imaging analysis in presence of carbidopa; type: ADME, tissue-based, Macaca fascicularis

[11CH3]c1ccc(O)cc1C[C@H](N)C(=O)O
Drug uptake [1]: Active
Drug uptake [2]: Active
t1/2 [3]: 30 min
Drug uptake [4]: Active
Drug uptake [5]: Active
Drug uptake [6]: Active
Drug uptake [7]: Active
Drug uptake [8]: Active
Drug uptake (Brain): Active

N[C@@H](Cc1cc(O)c(O)cc1[18F])C(=O)O [FLUORODOPA F 18]
Drug uptake [1]: Active
Drug uptake [2]: Active
t1/2 [3]: 50 min
Drug uptake [4]: Active
Drug uptake [5]: Active
Drug uptake [6]: Active
Drug uptake [7]: Active
Drug uptake [8]: Active
Drug uptake (Brain): Active
